Results on 19 compounds are retold here after US20140288044A1, “COMPOSITIONS AND THERAPEUTIC USES OF IKK-RELATED KINASE EPSILON AND TANKBINDING KINASE 1 INHIBITORS” (Alzheimer's Institute of America, Inc., priority 2011, published 2014).

For one assay, the target named is T1, IKKε (Homo sapiens, UniProt Q14164).
T1 construct: His-tag (in-house Sf9 preparation) or GST-tag (purchased Invitrogen preparation); these are alternatives, not both on one protein; host or cells: Sf9 cells
T1 sequence (Q14164 1-716): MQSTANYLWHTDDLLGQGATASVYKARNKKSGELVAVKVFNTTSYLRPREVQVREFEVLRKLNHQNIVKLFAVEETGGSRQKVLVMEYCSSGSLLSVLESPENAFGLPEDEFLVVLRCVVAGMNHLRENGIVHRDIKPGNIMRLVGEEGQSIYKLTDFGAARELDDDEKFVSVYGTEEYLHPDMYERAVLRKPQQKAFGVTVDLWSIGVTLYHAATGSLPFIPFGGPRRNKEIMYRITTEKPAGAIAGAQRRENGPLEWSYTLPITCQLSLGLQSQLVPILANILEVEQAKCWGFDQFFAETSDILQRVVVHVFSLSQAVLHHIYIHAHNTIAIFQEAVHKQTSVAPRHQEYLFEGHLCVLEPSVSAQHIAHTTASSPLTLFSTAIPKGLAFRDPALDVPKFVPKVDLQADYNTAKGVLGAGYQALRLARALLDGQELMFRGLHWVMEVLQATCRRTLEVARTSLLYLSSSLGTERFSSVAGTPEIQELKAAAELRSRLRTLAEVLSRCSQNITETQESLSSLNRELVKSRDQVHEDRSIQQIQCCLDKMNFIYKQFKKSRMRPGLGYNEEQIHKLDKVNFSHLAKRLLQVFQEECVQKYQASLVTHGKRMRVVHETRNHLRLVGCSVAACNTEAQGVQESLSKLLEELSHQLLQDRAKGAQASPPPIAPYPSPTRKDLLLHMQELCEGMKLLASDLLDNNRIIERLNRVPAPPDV
Description: In-vitro IKKε kinase assay (radiolabelled ATP, filterplate). The assay is classed as biochemical. In a few lines:
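His-tagged IKKε from Sf9 cells or GST-tagged IKKε, with myelin basic protein, casein or dephosphorylated casein as substrate and 32 μM ATP (2× Km) plus [γ^33]ATP. "Normal" assay used 0.1 μg/ml enzyme; "sensitized" used 0.015 μg/ml with dephosphorylated casein only. Stopped after 30–45 min with phosphoric acid; P-81 filter counts normalized to DMSO after background subtraction.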

Assay [1] concerns IKKε-mediated phosphorylation of IRF3. The experiment in a line: ELISA for in-situ phosphorylation of IRF3 (phospho-Ser396) in HEK293T cells cotransfected with IRF3 and IKKε. The class given is cell-based. The conditions noted are these: Homo sapiens, HEK-293T, 20 h, HEK293T cells, 20 hours, read-out: IC50, in-situ IKKε-mediated phosphorylation of IRF3. On the procedure:
HEK293T cells were cotransfected in a 10-cm dish with IRF3 and IKKε expression plasmids using Lipofectamine 2000 (Invitrogen, Carlsbad, Calif.). The following day, cells were replated at 20,000 per well in 96-well plates and treated with test compounds (compounds according to Formulae I and/or II) for 20 hours. Cell lysates were prepared and analyzed using an ELISA for phospho-Ser396 (anti-IRF3 capture antibody, Santa Cruz Biotechnology, Inc., Santa Cruz, Calif.; anti-p-Ser396 IRF3 detection antibody, Cell Signaling, Danvers, Mass.). pIRF3 levels in compound treated cells were normalized to DMSO treated cells (no compound). Cell viability was assayed in a parallel set of plates to monitor cytotoxic effects of the test compounds (CellTiter-Glo, Promega, Inc., Madison, Wis.). TBK1 activity was tested by Western blotting using a phospho-specific IRF7 antibody. Similar to above, HEK293T cells were transfected with IRF7 and TBK1 expression plasmids. Cells were seeded in 12-well plates at 150,000 per well and treated overnight with test compounds. Protein lysates were prepared and processed for Western blotting followed by detection using a phosphor-Ser477/Ser479 IRF7 antibody (BD Biosciences, San Jose, Calif.)

The mark [2] stands for this setting: "sensitized" assay, read-out: IC50, inhibition of the kinase activity of IKKε.
[3] abbreviates: in-vitro IKKε kinase inhibition assays, given as 0.005 μM (5 nM), read-out: IKKε kinase inhibitory activity (IC50 value).
Where [4] appears, read: range given from about 1 μM to about 250 nM.

Where two headings read alike, the source gives them in different places.

Usually IC50 stands for the concentration that gives 50% inhibition. Consider `N#Cc1cc(-c2ccnc(Nc3ccc(C4CC4)nc3)n2)ccc1OC1CCOCC1` [Example Compound 4, 5-{2-[(6-Cyclopropylpyridin-3-yl)amino]pyrimidin-4-yl}-2-(tetrahydro-2H-pyran-4-yloxy)benzonitrile], for which the IC50 at IKKε (setting [2]) was less than 0.005 µM; at IKKε (setting [3]), less than 0.005 µM; in assay [1] it was less than 0.1 µM.
In the case of `N#Cc1cc(-c2ccnc(Nc3ccc(N4CCCC4)nc3)n2)ccc1OC1CCOCC1` [Example Compound 5, 5-(2-{[6-(Pyrrolidin-1-yl)pyridin-3-yl]amino}pyrimidin-4-yl)-2-(tetrahydro-2H-pyran-4-yloxy)benzonitrile], the IC50 is less than 0.005 µM at IKKε (setting [2]), less than 0.005 µM on IKKε (setting [3]) and 0.1 to 0.25 µM in assay [1].
For the compound `Cc1ccc(Nc2nccc(-c3ccc(OC4CCOCC4)c(C#N)c3)n2)cn1` [Example Compound 7, 5 5-{2-[(6-Methylpyridin-3-yl)amino]pyrimidin-4-yl}-2-(tetrahydro-2H-pyran-4-yloxy)benzonitrile], the IC50 on IKKε (setting [2]) was less than 0.005 µM; at IKKε (setting [3]), less than 0.005 µM; in assay [1], 0.1 to 0.25 µM.
As for `CCOc1ccc(Nc2nccc(-c3ccc(OC4CCOCC4)c(C#N)c3)n2)cn1` [Example Compound 8, 5-{2-[(6-Ethoxypyridin-3-yl)amino]pyrimidin-4-yl}-2-(tetrahydro-2H-pyran-4-yloxy)benzonitrile], the half-inhibitory concentration (IC50) on IKKε (setting [2]) is less than 0.005 µM; on IKKε (setting [3]), less than 0.005 µM; in assay [1] (setting [4]), 0.25 to 1 µM.
`CNC(=O)c1cncc(Nc2nccc(-c3ccc(OC4CCOCC4)c(C#N)c3)n2)c1` [Example Compound 12, 5-({4-[3-Cyano-4-(tetrahydro-2H-pyran-4-yloxy)phenyl]pyrimidin-2-yl}amino)-N-methylpyridine-3-carboxamide]: the values for the IC50 (at IKKε (setting [2]); on IKKε (setting [3]); in assay [1]) were less than 0.005 µM, less than 0.005 µM and 1 to 5 µM, respectively.
On to `COCCNC(=O)c1cncc(Nc2nccc(-c3ccc(OC4CCOCC4)c(C#N)c3)n2)c1` [Example Compound 15, 5-({4-[3-Cyano-4-(tetrahydro-2H-pyran-4-yloxy)phenyl]pyrimidin-2-yl}amino)-N-(2-methoxyethyl)pyridine-3-carboxamide], for which the IC50 at IKKε (setting [2]) was less than 0.005 µM; on IKKε (setting [3]), less than 0.005 µM; in assay [1] (setting [4]), 0.25 to 1 µM.
Turning to `COC1CN(Cc2cncc(Nc3nccc(-c4ccc(OC5CCOCC5)c(C#N)c4)n3)c2)C1` [Example Compound 23, 5-[2-({5-[(3-Methoxyazetidin-1-yl)methyl]pyridin-3-yl}amino)pyrimidin-4-yl]-2-(tetrahydro-2H-pyran-4-yloxy)benzonitrile], the IC50 on IKKε (setting [2]) is less than 0.005 µM; at IKKε (setting [3]), less than 0.005 µM; in assay [1] (setting [4]), 0.25 to 1 µM.
As for `N#Cc1cc(-c2ccnc(Nc3ccc(C(=O)N4CCCC4)nc3)n2)ccc1OC1CCOCC1` [Example Compound 29, 5-(2-{[6-(Pyrrolidin-1-ylcarbonyl)pyridin-3-yl]amino}pyrimidin-4-yl)-2-(tetrahydro-2H-pyran-4-yloxy)benzonitrile], the concentration for half-maximal inhibition (IC50) at IKKε (setting [2]) is less than 0.005 µM; on IKKε (setting [3]), less than 0.005 µM; in assay [1], 0.1 to 0.25 µM.
Turning to `N#Cc1cc(-c2ccnc(Nc3ccc(C(=O)N4CC(O)C4)nc3)n2)ccc1OC1CCOCC1` [Example Compound 32, 5-[2-({6-[(3-Hydroxyazetidin-1-yl)carbonyl]pyridin-3-yl}amino)pyrimidin-4-yl]-2-(tetrahydro-2H-pyran-4-yloxy)benzonitrile], the figures for the concentration for half-maximal inhibition (IC50) (at IKKε (setting [2]); on IKKε (setting [3]); in assay [1] (setting [4])) were less than 0.005 µM, less than 0.005 µM and 0.25 to 1 µM, respectively.
With `N#Cc1cc(-c2ccnc(Nc3ccncc3)n2)ccc1OC1CCOCC1` [Example Compound 34, 5-[2-(Pyridin-4-ylamino)pyrimidin-4-yl]-2-(tetrahydro-2H-pyran-4-yloxy)benzonitrile], the IC50 on IKKε (setting [2]) is less than 0.005 µM; on IKKε (setting [3]) it was less than 0.005 µM; in assay [1] (setting [4]), 0.25 to 1 µM.
As for `N#Cc1cc(-c2ccnc(Nc3ccnc(N4CCC[C@@H]4CO)c3)n2)ccc1OC1CCOCC1` [Example Compound 37, 5-[2-({2-[(2R)-2-(Hydroxymethyl)pyrrolidin-1-yl]pyridin-4-yl}amino)pyrimidin-4-yl]-2-(tetrahydro-2H-pyran-4-yloxy)benzonitrile], the 50% inhibitory concentration (IC50) on IKKε (setting [3]) is less than 0.005 µM; in assay [1], 0.1 to 0.25 µM.
For `N#Cc1cc(-c2ccnc(Nc3ccnc(N4CC(O)C4)c3)n2)ccc1OC1CCOCC1` [Example Compound 41, 5-(2-{[2-(3-Hydroxyazetidin-1-yl)pyridin-4-yl]amino}pyrimidin-4-yl)-2-(tetrahydro-2H-pyran-4-yloxy)benzonitrile], the half-inhibitory concentration (IC50) on IKKε (setting [2]) is less than 0.005 µM; on IKKε (setting [3]) it was less than 0.005 µM; in assay [1] it was 0.1 to 0.25 µM.
In the case of `N#Cc1cc(-c2ccnc(Nc3ccnc(N4CCN(CCO)CC4)c3)n2)ccc1OC1CCOCC1` [Example Compound 42, 5-[2-({2-[4-(2-Hydroxyethyl)piperazin-1-yl]pyridin-4-yl}amino)pyrimidin-4-yl]-2-(tetrahydro-2H-pyran-4-yloxy)benzonitrile], the figures for the 50% inhibitory concentration (IC50) (at IKKε (setting [2]); on IKKε (setting [3]); in assay [1]) were less than 0.005 µM, less than 0.005 µM and less than 0.1 µM, respectively.
In the case of `COC1CN(c2cc(Nc3nccc(-c4ccc(OC5CCOCC5)c(C#N)c4)n3)ccn2)C1` [Example Compound 43, 5-(2-{[2-(3-Methoxyazetidin-1-yl)pyridin-4-yl]amino}pyrimidin-4-yl)-2-(tetrahydro-2H-pyran-4-yloxy)benzonitrile], the concentration for half-maximal inhibition (IC50) on IKKε (setting [2]) was less than 0.005 µM; on IKKε (setting [3]), less than 0.005 µM; in assay [1], less than 0.1 µM.
`N#Cc1cc(-c2ccnc(Nc3ccnc(N4CCOCC4)c3)n2)ccc1OC1CCOCC1` [Example Compound 44, 5-(2-{[2-(Morpholin-4-yl)pyridin-4-yl]amino}pyrimidin-4-yl)-2-(tetrahydro-2H-pyran-4-yloxy)benzonitrile]: the values for the half-inhibitory concentration (IC50) (at IKKε (setting [2]); on IKKε (setting [3]); in assay [1]) were less than 0.005 µM, less than 0.005 µM and less than 0.1 µM, respectively.
For `COCCOC1CN(c2cc(Nc3nccc(-c4ccc(OC5CCOCC5)c(C#N)c4)n3)ccn2)C1` [Example Compound 45, 5-[2-({2-[3-(2-Methoxyethoxy)azetidin-1-yl]pyridin-4-yl}amino)pyrimidin-4-yl]-2-(tetrahydro-2H-pyran-4-yloxy)benzonitrile], the IC50 on IKKε (setting [2]) is less than 0.005 µM; at IKKε (setting [3]) it was less than 0.005 µM; in assay [1] it was 0.1 to 0.25 µM.
Take `CC(C)C(=O)Nc1ccc(-c2ccnc(Nc3ccnc(N4CC(O)C4)c3)n2)cc1C#N` [Example Compound 246, N-[2-Cyano-4-(2-{[2-(3-hydroxyazetidin-1-yl)pyridin-4-yl]amino}pyrimidin-4-yl)phenyl]-2-methylpropanamide]: the IC50 in assay [1] is 1 to 5 µM.
Take `COC1CN(c2cc(Nc3nccc(-c4ccc(NC(=O)C(C)C)c(C#N)c4)n3)ccn2)C1` [Example Compound 247, N-[2-Cyano-4-(2-{[2-(3-methoxyazetidin-1-yl)pyridin-4-yl]amino}pyrimidin-4-yl)phenyl]-2-methylpropanamide]: the IC50 in assay [1] (setting [4]) fell in the range of 0.25 to 1 µM.
`C[C@H](O)C(=O)N1CCC(Oc2ccc(-c3ccnc(Nc4ccc(N5CC(O)C5)nc4)n3)cc2C#N)CC1` [Example Compound 253, 5-(2-{[6-(3-Hydroxyazetidin-1-yl)pyridin-3-yl]amino}pyrimidin-4-yl)-2-({1-[(2S)-2-hydroxypropanoyl]piperidin-4-yl}oxy)benzonitrile]: the IC50 in assay [1] is 1 to 5 µM.
